Experiment [1] has as its target T1, B. thetaiotaomicron VPI-5482 Kdn-9-P phosphatase (Bacteroides thetaiotaomicron, UniProt Q8A712).
T1 construct: gene BT_1713
Nature of the experiment: […] NMR coupled assay, Kdn-9-P generated in situ by P. parvum Kdn-9-P synthetase. The format is biochemical. The note with it: coupled with Kdn-9-P synthetase, 10 mM PEP, 8 mM Man-6-P, 2 mM MgCl2, 50 mM HEPES pD 7.5, 1 h.

Experiment [2] deals with T2, Kdn-9-P synthetase (CAMPEP_0191217894).
T2 construct: no truncation stated
Nature of the experiment: BioMol Green colorimetric phosphate-release assay, Michaelis-Menten. The following applies: 50 mM HEPES pH 7.5, 2 mM MgCl2, 25 °C. The format is biochemical, Prymnesium parvum.

Each structure is given as a SMILES string. Where two headings read alike, the source gives them in different places.

T1 sequence (Q8A712 whole entry, change not shown): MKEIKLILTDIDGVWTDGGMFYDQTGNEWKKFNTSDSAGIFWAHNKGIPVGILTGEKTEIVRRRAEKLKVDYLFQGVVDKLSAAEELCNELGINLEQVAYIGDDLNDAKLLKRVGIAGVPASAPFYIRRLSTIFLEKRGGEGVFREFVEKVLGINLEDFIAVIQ

On to `O=C(O)C1(O)C[C@H](O)[C@@H](O)[C@H]([C@H](O)[C@H](O)COP(=O)(O)O)O1` (stereo partly drawn) [Kdn-9-P], for which, in experiment [1], the “31P NMR coupled assay, Kdn-9-P generated in situ by P. parvum Kdn-9-P synthetase” value is given as “is accepted by B. thetaiotaomicron VPI-5482 Kdn-9-P phosphatase”.
Consider `O=P(O)(O)OC[C@H]1OC(O)[C@@H](O)[C@@H](O)[C@@H]1O` (stereo partly drawn) [Man-6-P], for which, in experiment [2] (100 μM PEP, read-out: (Man-6-P)Km), the Km (commonly the substrate concentration at which the rate is half of its maximum) amounted to 63.6 ± 10.5 µM.
With `C=C(OP(=O)(O)O)C(=O)O` [PEP], in experiment [2] (100 μM Man-6-P, read-out: (PEP)Km), the Km is 18.3 ± 1.8 µM.
